US5594012A, “Amino acid derivatives and anti-active oxygen agents” (Ajinomoto Co., Inc., priority 1992, dated 1997)
Structures can show the parent of a compound that is named as a salt.

Tests used:
[1] = tested on: lipid peroxidation in homogenate of murine swiss 3T3 cells; assay: Inhibitory effects on UV-induced lipid peroxidation (homogenate of murine swiss 3T3 cells); type: biochemical; conditions: 1 mM test compound; UVB 0.4 mW/cm^2, 90 min; pH 7.2 to 7.8; TBA, 535 nm
Experimental: Test for Inhibitory Effects on UV-induced Lipid Peroxidation
The test was carried out on the basis of the methods described in Biochim. Biophys. […] Namely, 12 μl of an aqueous sodium hydroxide solution of each of the test compounds shown in Table 5 below was added to 1.2 ml of a homogenate of murine swiss 3T3 cells (i.e. a kind of murine skin cells) prepared by a conventional method in 20 mM phosphate buffer (protein content: 1.5 to 1.8 mg/ml). The final concentration of the test compounds was adjusted to be 1 mM and the pH of the solution was adjusted to 7.2 to 7.8. If test compounds were not soluble in an aqueous sodium hydroxide solution, they were dissolved in N,N-dimethyl sulfoxide (DMSO).
This solution (1.1 ml) was irradiated with UV rays (0.4 mW/cm^2, 90 min.) using a UVB lamp "EB-280C/J" (manufactured by Spectronics). To an aliquot (1.0 ml) of this solution were successively added 0.2 ml of an aqueous solution of sodium dodecyl sulfate and 1.0 ml of an aqueous solution of thiobarbituric acid/trichloroacetic acid/hydrochloric acid, and the mixed solution was heated in a boiling water bath for 15 minutes. After ice-cooling, the solution was extracted with 1.0 ml of 1-butanol to prepare a sample for determining peroxide lipid as absorbance at a wavelength of 535 nm using a spectrophotometer "Model 320" (manufactured by Hitachi).
(§1) [formula] A1 : Absorbance when a test compound was added. A2 : Absorbance when a test compound was not added.
A3 : Absorbance when a test compound was not added and UV rays were not irradiated.

hydroxyl radical [2] = assay: Inhibitory effects on hydroxyl radical formation (1) (xanthine/xanthine oxidase, deoxyribose); type: biochemical; conditions: 360 μM test compound; 36 μM ammonium iron (III) sulphate; xanthine oxidase 0.7 unit/ml; 37° C., 15 minutes; pH 7.4 to 7.8
Experimental: Test for Inhibitory Effects on Hydroxyl Radical Formation (1)
The test was carried out in accordance with the method described in FEBS Letters, Vol. 128, page 347, 1981. Namely, to 1.1 ml of a solution of 54 mM sodium chloride in 9 mM phosphate buffer (hereinafter referred to as "PBS-I") were successively added 140 μl of a solution of each of the test compounds shown in Table 6 below in PBS-1, […] of a 1 mM solution of ammonium iron (III) sulphate in hydrochloric acid, 140 μl of a solution of xanthine (manufactured by Tokyo Kasei Co.) in PBS-1, 14 μl a solution of deoxyribose (Sigma) in PBS-1 and xanthine oxidase (Sigma). The final concentrations of the test compounds, ammonium iron (III) sulphate, xanthine, deoxyribose and xanthine oxidase were adjusted to be 360 μM, 36 μM, 70 μM, 700 μM and 0.7 unit/ml, respectively. If test compounds were not soluble in PBS-1 alone, aqueous sodium hydroxide solution or DMSO was added. The pH of the solution was adjusted to 7.4 to 7.8.
. The percent inhibition of the hydroxyl radical was calculated from the following equation (2) and the results are shown in Table 6. [formula] F1 : Intensity of fluorescence when a test compound was added. F2 : Intensity of fluorescence when a test compound was added but deoxyribose was not added.
F3 : Intensity of fluorescence when a test compound was not added.
F4 : Intensity of fluorescence when neither test compound nor deoxyribose was added.

[3] = tested on: lipid peroxidation in murine brain homogenate; assay: Inhibitory effects on metal ion-induced lipid peroxidation (murine brain homogenate); type: biochemical, murine (C57 black mouse); conditions: 1 mM test compound; 100 μM ammonium iron (II) sulphate; 37° C., 30 minutes; pH 7.2 to 7.8
Experimental: Test for Inhibitory Effects on Metal Ion-induced Lipid Peroxidation
(§2) The test was carried out according to the method described in Method in Enzymol., Vol. 52, page 302, 1978. A C57 black mouse was killed by cervical dislocation, and the whole brain extracted from the dissected head was washed with 20 mM phosphate buffer (hereinafter referred to as "PBS-2"). Then, the brain was added with PBS-2 in an amount of 19 times its wet weight, and the mixture was disrupted and homogenized with a homogenizer "Polytron" (manufactured by Kinematica). The thus prepared 5% solution of the murine brain homogenate in PBS-2 was diluted 1:5 with fresh PBS-2. To 800 μl of the resulting 1% solution of the murine brain homogenate in PBS-2 (protein content: 0.8 to 1.0 mg/ml) were successively added 100 μl of a PBS-2 solution of each of the test compounds shown in Table 7 below and 100 μl of an aqueous solution of ammonium iron (II) sulphate. The final concentration of the test compounds and ammonium iron (II) sulphate were adjusted to be 1 mM and 100 μM, respectively. If test compounds were not soluble in PBS-2 alone, an aqueous sodium hydroxide solution or DMSO was added. The pH of the solution was adjusted to 7.2 to 7.8.
The solution after heated at 37° C. for 30 minutes was added with 2.0 ml of an aqueous solution of thiobarbituric acid/trichloroacetic acid/hydrochloric acid, and the mixture was heated in a boiling water bath for 15 minutes. After ice-cooling, the solution was extracted with 1.0 ml of 1-butanol to prepare a sample for determining the peroxide lipid in the same way as described in Test Example 1.
as §1
A3 : Absorbance when a test compound was not added and heating at 37° C. for 30 minutes was not carried out.

[4] = tested on: lipid peroxidation in murine brain homogenate; assay: Inhibitory effects on lipid peroxidation (murine brain homogenate); type: biochemical, murine (C57 black mouse); conditions: 30 μM test compound; no added iron; 37° C., 60 minutes; pH 7.2 to 7.8
Experimental: as §2
Test for Inhibitory Effects on Lipid Peroxidation
To 900 μl of a 5% solution of the murine brain homogenate in PBS-2 prepared in the same way as described in Test Example 3 was added 100 μl of a PBS-2 solution of each of the test compounds shown in Table 8 below. The final concentration of the test compounds was adjusted to be 30 μM. If test compounds were not soluble in PBS-2 alone, an aqueous solution of sodium hydroxide or DMSO was added. The pH of the solution was adjusted to 7.2 to 7.8.
The solution after heated at 37° C. for 60 minutes was added with 1.0 ml of an aqeuous solution of thiobarbituric acid/trichloroacetic acid/hydrochloric acid, and the mixture was heated in a boiling water bath for 15 minutes. After ice-cooling, the solution was extracted with 2.0 ml of 1-butanol to prepare a sample for determining the lipid peroxide in the same way as described in Test Example 1. […] [formula] A4 : Absorbance when a test compound was added. A5 : Absorbance when a test compound was not added.
A6 : Abosrbance when a test compound was not added and heating at 37° C. for […] was not carried out.

hydroxyl radical [5] = assay: Inhibitory effects on hydroxyl radical formation (2) (iron (II)/hydrogen peroxide, DMPO, ESR); type: biochemical; conditions: 306 μM test compound; 306 μM iron (II) sulphate; 75 mM DMPO; 306 μM hydrogen peroxide; ESR within 40 seconds
Experimental: Test for Inhibitory Effects on Hydroxyl Radical Formation (2)
To 75 μl of a solution of each of the test compounds shown in Table 9 below in 0.1M phosphate buffer (hereinafter referred to as "PBS-3") were successively added 75 μl of an aqueous solution of iron (II) sulphate, 20 μl of an aqueous solution of 5,5-dimethyl-1-pyrroline-N-oxide "DMPO" (manufactured by Dojin Chemical) and 75 μl of an aqueous solution of hydrogen peroxide. […] If test compounds were not soluble in PBS-3 alone, an aqueous sodium hydroxide solution or N,N-dimethyl formamide was added.
This solution was subjected to determination for the hydroxy radical immediately (within 40 seconds), using an electron spin resonance (ESR) meter "JES-FR80S" (manufactured by Nippon Denshi).
[formula] E1 : Signal magnitude when a test compound was added. E2 : Signal magnitude when a test compound was not added.

UV absorptive activities = type: physicochemical; conditions: 100 μM in ethanol (water or DMSO added if not soluble); for Maximum molar extinction coefficient: UVA and UVB regions
Experimental: Test for UV Absorptive Activities
A solution of each of the test compounds shown in Table 10 below in ethanol was prepared for the final concentration to be 100 μM. If test compounds were not soluble in ethanol alone, water or DMSO was added.
The absorption spectrum of each sample was determined using a spectrophotometer "Model 320" (manufactured by Hitachi).

| % Inhibition of hydroxyl radical (hydroxyl radical [2]) [%] | Wavelength (nm) of maximum absorption (UV absorptive activities) [nm] | Maximum molar extinction coefficient (UV absorptive activities) | Structure (SMILES) | % Inhibition of UV-induced lipid peroxidation [1] [%] | % Inhibition of metal ion-induced lipid peroxidation [3] [%] | % Inhibition of lipid peroxidation [4] [%] | % Inhibition of hydroxy radicals (hydroxyl radical [5]) [%] |
| --- | --- | --- | --- | --- | --- | --- | --- |
| 29 | – | – | O=C(O)C(CO)NCc1ccccc1O (stereo not drawn) [Synthesis Example 2] | 59 | 41 | 26 | 44 |
| 15 | – | – | O=C(O)C(CCO)NCc1ccccc1O (stereo not drawn) [Synthesis Example 3] | 65 | 21 | – | 45 |
| 33 | – | – | O=C(O)C(Cc1ccc(O)cc1)NCc1ccccc1O (stereo not drawn) [Synthesis Example 4] | 60 | 26 | – | 27 |
| 42 | 290 | 3,500 | Cc1ncc(CO)c(CNC(CO)C(=O)O)c1O (stereo not drawn) [Synthesis Example 18] | – | 26 | 44 | 43 |
| – | 309 | 7,000 | O=C(O)[C@H](Cc1c[nH]cn1)N=Cc1c(O)ccc2ccccc12 [Synthesis Example 27, N-(2-hydroxy-1-naphthal)-L-histidine] | – | 87 | 98 | 71 |
| 16 | – | – | O=C(O)C(Cc1ccc(O)cc1)N=Cc1c(O)ccc2ccccc12 (stereo not drawn) [Synthesis Example 31] | – | 90 | – | – |
| 15 | 291 | 4,300 | Cc1ncc(CO)c(C=N[C@@H](Cc2c[nH]cn2)C(=O)O)c1O [Synthesis Example 68, N-pyridoxilidene-L-histidine-sodium salt] | – | 15 | – | 10 |
| 60 | – | – | Cc1ncc(CO)c(C=NC(Cc2ccc(O)cc2)C(=O)O)c1O (stereo not drawn) [Synthesis Example 70] | – | 27 | – | 28 |

More lines, now with the values behind:

| Structure (SMILES) | % Inhibition of hydroxyl radical (hydroxyl radical [2]) [%] | Wavelength (nm) of maximum absorption (UV absorptive activities) [nm] | Maximum molar extinction coefficient (UV absorptive activities) | % Inhibition of UV-induced lipid peroxidation [1] [%] | % Inhibition of metal ion-induced lipid peroxidation [3] [%] | % Inhibition of lipid peroxidation [4] [%] | % Inhibition of hydroxy radicals (hydroxyl radical [5]) [%] |
| --- | --- | --- | --- | --- | --- | --- | --- |
| O=C(O)CC(O)(CC(=O)O)C(=O)O [Citric acid, reference compound] | -33 | – | – | 19 | -15 | -13 | – |
| O=C(O)[C@H](Cc1c[nH]cn1)NCc1ccccc1O [Synthesis Example 1, N-(2-hydroxybenzyl)-L-histidine] | 29 | – | – | 40 | 26 | 53 | 27 |
| Cc1ncc(CO)c(CNCC(=O)O)c1O [Synthesis Example 16] | – | – | – | – | – | 89 | 56 |
| Cc1ncc(CO)c(CNC(Cc2c[nH]cn2)C(=O)O)c1O (stereo not drawn) [Synthesis Example 22] | – | 290 | 5,300 | – | – | 91 | 51 |
| O=C(O)C(CCO)N=Cc1c(O)ccc2ccccc12 (stereo not drawn) [Synthesis Example 29] | – | – | – | – | 78 | – | 60 |
| CC(C)C(N=Cc1c(O)ccc2ccccc12)C(=O)O (stereo not drawn) [Synthesis Example 30] | – | – | – | – | 43 | – | 25 |
| O=C(O)CCC(N=Cc1c(O)ccc2ccccc12)C(=O)O (stereo not drawn) [Synthesis Example 47] | – | – | – | – | 90 | – | 32 |
| COC(=O)CCC(N=Cc1c(O)ccc2ccccc12)C(=O)O (stereo not drawn) [Synthesis Example 48] | – | – | – | – | 85 | – | 54 |
| N=C(N)NCCCC(N=Cc1c(O)ccc2ccccc12)C(=O)O (stereo not drawn) [Synthesis Example 53] | – | – | – | – | 96 | – | 68 |
| O=C(O)C(Cc1c[nH]cn1)N=Cc1ccccc1O (stereo not drawn) [Synthesis Example 60] | – | – | – | – | 34 | – | 33 |
| Cc1ncc(CO)c(C=NC(CO)C(=O)O)c1O (stereo not drawn) [Synthesis Example 69] | – | 336 | 3,000 | – | 23 | 15 | 19 |
